This is an account of results in patent US6989263B1, “Method for identifying and using compounds that inactivate HIV-1 and other retroviruses by attacking highly conserved zinc fingers in the viral nucleocapsid protein” (The United States of America as represented by the …, priority 1994, dated 2006).

SMILES strings stand for the structures. Entries after “also recorded” stand apart in the source; their conditions may differ. Like-named read-outs stand apart in the source and are kept apart here.

One series has as its target T1, p7NC (Human immunodeficiency virus type 1 group M subtype B, UniProt P05888).
T1 construct: The NC protein of HIV-1 (MN) p7NC was expressed in E. coli; made in house; host or cells: E. coli (vector pMAL-c)
The experiment in a line: HPLC analysis of reaction products of purified p7NC with reagent. The class given is biochemical, HIV-1. Also on record: key to Protein (HPLC): reaction products / Protein (HPLC): reaction rate: formation of non-native, intra-protein disulfide links (designated “Disulfides”); some of the reagents form adducts with the cysteine residues as well (designated “Adducts”); slow: “Slow” reactions are those in which greater than 10% of the p7NC protein remained in its native form after the 10 minute incubation with reagent; very slow: “Very slow” reactions are those in which greater than 50% of the p7NC protein remained in its native form after the 10 minute incubation with reagent; fast: “Fast” reactions result in complete transformation of the p7NC protein to non-native conformations during the 10 minute incubation period. An excerpt: Highly purified retroviral NC proteins can be produced by expression from vectors generated through recombinant DNA technology. These proteins when reconstituted with zinc (see, Summers, et al., Protein Science 1:563–567 (1992) for methods), provide the source of the NC proteins containing the zinc fingers that are the targets for attack by the compounds of this invention. When the zinc fingers in NC proteins react with identified compounds, the reaction produces a covalent change in the NC protein, and the modified protein can be separated from the unreacted protein by, for example, reversed phase HPLC.
Samples of p7NC and apo-p7 were reacted with varying amounts of cupric chloride and resulting products separated by HPLC. The reactions were carried out using 44.3 μM protein (p7NC or apo-p7) in 0.1 M Tris-HCl, pH 7.4, for 6 minutes at room temperature with varying concentrations of CuCl2 to achieve the indicated ratios of reactants, in a final volume of 0.7 ml. Chromatography was carried out on the resulting products at pH 2 (0.05% trifluoroacetic acid) on μBondapak™ C-18 (3.9×300 mm) at 1.0 ml/minute using an acetonitrile gradient (0–17%, 20 ml; 17–20%, 60 ml; 20–60%, 10 ml). Elution positions of unreacted protein (p7NC or apo-p7) are indicated as apo-p7.
A two-fold excess of NOBA was reacted with p7NC, and the products were separated by HPLC (FIG. 10) as described above for Cu^+2 and p7NC. Elution positions for the reactants (NOBA and unreacted p7NC) and products, reacted p7NC, NOBA, HABA and AzoxyBA are indicated and an elution profile is included in FIG. 10. NOBA and AzoxyBA were supplied by Octamer, Inc. (Mill Valley, Calif.) and used as HPLC standards.
The disulfide reagent of choice (each available from the Aldrich Chemical Company (Milwaukee, Wis.)) was incubated for 10 minutes with purified p7NC protein (63 μM) at a ratio of 6 molecules of reagent to 1 molecule of NC protein (there are 6 cysteine thiols per NC protein). The formation of non-native protein conformations was monitored by HPLC as described above. […] Generally, the inactivation proceeds by formation of non-native, intra-protein disulfide links (designated “Disulfides”), but some of the reagents form adducts with the cysteine residues as well (designated “Adducts”). “Slow” reactions are those in which greater than 10% of the p7NC protein remained in its native form after the 10 minute incubation with reagent. “Very slow” reactions are those in which greater than 50% of the p7NC protein remained in its native form after the 10 minute incubation with reagent. “Fast” reactions result in complete transformation of the p7NC protein to non-native conformations during the 10 minute incubation period.

Series [1] has as its system HIV-1. Conditions: for IC50: read-out: TCID (Virus): concentration of reagent required to inactivate half of a standardized number of HIV-1 virus particles, tissue culture infectivity assay; for inactivation of HIV-1 virus / infectivity, in words: PCR and viral inactivation assays.
Description: (§1) Concomitantly, the drug treated virions are tested for activity. The virions are suspended in media (rather than solubilized) and added to target cells. The cultures are then examined to determine whether the virions are still active.
Series [2] deals with HIV-1. The experiment in a line: microbe, parasite or virus in culture. Conditions: Human immunodeficiency virus 1, read-out: TCID (Virus): concentration of reagent required to inactivate half of a standardized number of HIV-1 virus particles.
Description: as §1
For series [3], the target named is T2, HIV NC protein in intact virus (Human immunodeficiency virus type 1 group M subtype B, UniProt P05888).
T2 construct: endogenous in cells; host or cells: intact HIV virions
The experiment in a line: Cross-linking of NC protein in intact HIV (non-reducing gel-mobility shift, western blot). The class given is biochemical, HIV-1. Conditions: for X-link T-½ (min), HIV NC protein (top number): intact HIV generally 12.5 μM, reagent generally 25 μM. An excerpt: Purified concentrated retrovirus and antisera against the purified NC protein of the virus can be used to test the ability of a specific compound to penetrate the virus and react with the NC protein by forming disulfide complexes in the core of the virus. The compound is mixed with the whole retrovirus under reaction conditions appropriate for the compound. The virus is then removed from the reagent by centrifugation and disrupted in, e.g, standard SDS-PAGE sample buffer with (reduced) and without (non-reduced) 2-mercaptoethanol. The viral proteins are then separated by standard SDS-PAGE and the sample examined for the presence or absence of the monomeric NC protein in the non-reduced sample. Depending upon the virus used in the experiment and the conditions of electrophoresis, the NC protein can be visualized by protein staining methods, or by immuno-blot (e.g., western) methods. Compounds which react with the NC protein by attacking the zinc finger complexes and forming disulfide cross-linked products (i.e., which generate multimers in the mobility shift assay) inactivate the virus. Thus, compounds of interest (i.e., those which cause cross-linking) reduced the amount of monomeric NC protein detected.
In order to determine whether HIV-1MN was inactivated by NOBA, the virus was incubated with varying concentrations of NOBA (3.0, 0.3, 0.03 and 0 mM) as in Table 1. The reaction products were pelleted by centrifugation, and separated by SDS-PAGE under reducing (2% 2-mercaptoethanol, panel A), or non-reducing conditions (panel B). p7NC was visualized by immunoblot analysis using monospecific rabbit antisera to the purified NC proteins as per L. E. Henderson et al., J. Virol. 66:1856 (1992).
Disulfide reagents were further tested for their ability to disrupt NC structure in the virus, based on their ability to cause inter-NC cysteine disulfide bonds (i.e., cross-linking) in the intact virus. The formation of inter-NC cysteine disulfides creates NC multimers, which migrate through a non-reducing gel at a different rate than NC monomers, as described above. Intact HIV virus (generally 12.5 μM) was exposed to the specified reagent (generally 25 μM) for varying lengths of time and electrophoresed through a non-reducing SDS-polyacrylamide gel. HIV NC monomers and multimers were visualized by western blot analysis as described above in Example 3. The approximate time required to cross-link one-half of the NC proteins in the virus at the specified reaction conditions was then determined. […] The top number in the cells of the X-link column in Table 2 refers to the approximate time in minutes required for one-half of the HIV NC proteins to become cross-linked.
On the technique in general: In western blotting, separated proteins are transferred to a membrane and probed.

The conditions of series [4]: cited from earlier work.
Series [5] deals with SSFV (spleen focus forming virus). Description: Survival of mice infected with SSFV. The class given is in vivo. The conditions noted are these: oral doses, versus infected untreated mice. From the text:
Mice susceptible to the retrovirus SSFV (spleen focus forming virus) when injected with the virus die within 35–40 days as a result of virally-mediated transformation of cells of the spleen.

The target of series [6] is T3, p11 Nucleocapsid Protein (p11NC) (Equine infectious anemia virus, UniProt P69732).
T3 construct: a variety of disulfide reagents cross-link the p11NC protein in intact viral particles; endogenous in cells; host or cells: intact EIAV particles
T3 sequence (P69732 360-435): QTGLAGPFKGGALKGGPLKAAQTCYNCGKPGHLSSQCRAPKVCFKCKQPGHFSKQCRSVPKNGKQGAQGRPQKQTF
Description: Cross-linking of p11NC in intact EIAV particles (gel-mobility shift). The class given is biochemical. Conditions: intact EIAV (50 μM), 4× the HIV assay concentrations. From the text:
Essentially the same strategy was employed to analyze the ability of the various disulfide reagents to cross-link the p11 Nucleocapsid Protein (p11NC) in intact Equine Infectious Anemia Virus (EIAV) particles. The advantages of working with EIAV include the fact that it is not a human pathogen, and that the p11NC protein can be visualized by simple coomassie-blue staining after performing the gel-mobility shift assay (rather than by western blotting as for HIV) described above. The reaction conditions were essentially the same for the EIAV assays as for the HIV assays described above, except that the concentration of virus and disulfide reagent was 4× the concentrations used in the HIV assay above. The second number in each cell in the X-link column in Table 2 represents the time required to cross-link one-half of the p11NC protein in the intact viral particles. […] The bottom number in each cell of the X-link column, unless otherwise indicated, represents the concentration of EIAV used in the assay. Blank cells throughout Table 2 indicate that the compound has yet to be tested for the specified property.

The mark [7] stands for this setting: 63 μM p7NC, 6 reagent : 1 protein, 10 minutes.

As for `Cl.Cl.N=C(N)SSC(=N)N` [Formamidine Disulfide.2HCl], the “Protein (HPLC): reaction products” value at p7NC (setting [7]) is “Disulfides”. The IC50 with HIV-1 [1] was 43.5 µM.

As to `O=C(SSC(=O)c1ccccc1)c1ccccc1` [Benzoyl Disulfide], on p7NC (setting [7]), the “Protein (HPLC): reaction products” value is listed as “Disulfides; also recorded: Adducts”. Besides, the IC50 in the series with HIV-1 [2] turned out to be 68 µM.

As for `CN(C)c1ccc(SSc2ccc(N(C)C)cc2)cc1` [4-(dimethylamino)phenyl disulfide], the “Protein (HPLC): reaction products” value at p7NC (setting [7]) was “(negative)”. Besides, in the series with HIV-1 [2], the IC50 was determined as 17.5 µM.

On to `CCN(CC)C(=S)SSC(=S)N(CC)CC` [Tetraethylthiuram Disulfide, reference compound], for which, at p7NC, the “reaction with purified p7NC (HPLC), in words” value was “reacts with p7NC to form oxidized p7 (disulfides)”. The “Protein (HPLC): reaction products” value on p7NC (setting [7]) is “Disulfides”. Further, the “X-link T-½ (min), HIV NC protein (top number)” value (shortened to “X-link T-½ (min) … (top number)”) in series [3] is on record as roughly 15 min. Moreover, the “inactivation of HIV-1 virus / infectivity, in words” value in the series on HIV-1 [1] is “inactivates the virus”; in the series on HIV-1 [1] (listed as Tetraethylthiuram disulfide), “inactivate HIV-1 virus”. For the same compound, the “Toxicity (LD-50, mouse)” value was 75 mg/kg in series [4] (IP) and 1980 mg/kg in series [4] (oral). Moreover, the IC50 with HIV-1 [2] was found to be 66 µM. In series [5], the “survival after SSFV infection” value was “survived SSFV infection significantly longer”. Further, the “X-link T-½ (min), EIAV p11NC (second number)” value (“X-link T-½ (min), EIAV p11NC” for short) in series [6] is on record as roughly 15 min.

Take `S=C(SSC(=S)N1CCCCC1)N1CCCCC1` [Dicyclopentamethylenethiuram Disulfide]: at p7NC (setting [7]), the “Protein (HPLC): reaction products” value is listed as “Disulfides”. Also, in series [3], the “cross-linking of the HIV-1 NC protein in intact virus (gel-mobility shift), in words” value is “caused a cross-linking of the HIV-1 NC protein” and the “X-link T-½ (min) … (top number)” value was <<15 min. Also, the “Toxicity (LD-50, mouse)” value in series [4] (oral) is 2870 mg/kg. Also, in the series with HIV-1 [2], the IC50 was determined as 4 µM. Besides, in series [6], the “X-link T-½ (min), EIAV p11NC” value is roughly 10 min.

As to `c1ccc(SSc2ccccn2)nc1` [Aldrithiol-2], at p7NC (setting [7]), the “Protein (HPLC): reaction products” value is reported as “Disulfides; also recorded: Adducts” and the “Protein (HPLC): reaction rate” value was “(slow) (“Slow” reactions are those in which greater than 10% of the p7NC protein remained in its native form after the 10 minute incubation with reagent)”. Besides, in series [3], the “cross-linking of the HIV-1 NC protein in intact virus (gel-mobility shift), in words” value is “caused a cross-linking of the HIV-1 NC protein” and the “X-link T-½ (min) … (top number)” value is given as roughly 15 min. The IC50 in the series with HIV-1 [1] stood at 9 µM. Also, in series [6], the “X-link T-½ (min), EIAV p11NC” value is listed as roughly 15 min.
